What was measured:
[1] = test system: MDA-MB-436 human breast cancer xenografts; assay: Antitumor activity against subcutaneous MDA-MB-436 human breast cancer xenografts in SCID mice (three studies); assay type: in vivo
Method: MDA-MB-436 human triple negative breast cancer cells are BRCA1 mutant and PTEN null. Cells were maintained in monolayer cultures in RPMI-1640 growth medium supplemented with 10% fetal bovine serum at 37° C. in a 5% CO2 humidified incubator. On the day of inoculation, cells were harvested by trypsinization, washed, and resuspended in ice-cold PBS. Female immunodeficient SCID mice were inoculated subcutaneously near the right axillary area with MDA-MB-436 cells (5×10^6) in a 1:1 ratio (50 μL each) with Matrigel™ in a volume of 0.1 mL in phosphate buffered saline, using a 26-gauge needle. A total of 125 mice, approximately 6 weeks old were implanted with MDA-MB-436 cells.
E7449, carboplatin and E7389 were evaluated as single agents and in combination for antitumor activity against MDA-MB-436 human breast cancer xenografts in SCID mice. Three separate studies were performed. The first experiment consisted of a vehicle control group, an E7449 single agent group, two groups treated with single agent E7389 and 2 combination drug-treated groups (Table 1). Thirty mice were inoculated with MDA-MB-436 cells and on Day 58 following implantation, tumor volumes were measured and mice were randomized into the 6 treatment groups based on tumor volume (average of 300 mm^3). Following randomization, drug treatment was initiated. Groups A to D were composed of 5 mice and groups E and F consisted of 4 mice for a total of 28 mice on the first day of treatment. E7449 was formulated in 0.5% methyl cellulose and orally administered once daily for 28 days (starting on Day 58) at 60 mg/kg based on body weight at 0.1 mL per 10 g. E7389 was formulated in saline and was intravenously administered once every 4 days, 4 times (Day 58, 62, 66, and 70) at a dosage of 0.4 or 1.6 mg/kg as single agent or in combination with E7449, based on body weight at 0.1 mL per 10 g. The control group was treated with oral vehicle (0.5% methyl cellulose in water) daily and intravenous vehicle (saline) once every 4 days, 4 times. E7449 or vehicle was administered first and when dosing of all animals was complete, E7389 was administered to animals receiving the combination.
The second experiment consisted of a vehicle control group, an E7449 single agent group, 2 groups treated with single agent carboplatin, and 2 combination drug-treated groups (Table 2). Thirty-five mice were inoculated with MDA-MB-436 cells and on Day 57, following implantation, tumor volumes were measured and mice were randomized into 6 treatment groups based on tumor volume (average of 250 mm^3). Following randomization drug treatment was initiated. Groups A to D were composed of 5 mice and groups E and F consisted of 6 mice for a total of 32 mice on the first day of treatment. E7449, formulated in 0.5% methyl cellulose was orally administered daily for 28 days (starting on Day 57), at 60 mg/kg based on body weight at 0.1 mL per 10 g. Carboplatin was formulated in saline and was intravenously administered once on the first day of treatment (Day 57) at a dosage of 15 or 60 mg/kg as a single agent or in combination with E7449 based on body weight at 0.1 mL per 10 g. The control group was treated with oral vehicle (0.5% methyl cellulose in water) daily and intravenous vehicle (saline) once on Day 57. E7449 or vehicle was administered first, and when dosing of all animals was complete carboplatin was administered to animals receiving the combination.
The third experiment consisted of a vehicle control group, 3 groups treated with single agent E7449, E7389, or carboplatin, 3 groups treated with double combinations of E7449+E7389, E7449+carboplatin, and E7389+carboplatin and a group treated with the three-drug combination (Table 3). Sixty mice were inoculated with MDA-MB-436 cells and on Day 41 following implantation, tumor volumes were measured and mice were randomized into 8 treatment groups based on tumor volume (average of 250 mm^3). Following randomization drug treatment was initiated.

[2] = test system: MDA-MB-231 human breast cancer xenografts; assay: Antitumor activity against subcutaneous MDA-MB-231 human breast cancer xenografts in athymic mice (two studies); assay type: in vivo; conditions: carboplatin 15 and 60 mg/kg IV QDx1, single agent
Method: MDA-MB-231 human triple negative breast cancer cells are wild type for BRCA1 and 2 and PTEN. Cells were maintained in monolayer cultures in RPMI-1640 growth medium supplemented with 10% fetal bovine serum at 37° C. in a 5% CO2 humidified incubator. On the day of inoculation, cells were harvested by trypsinization, washed, and resuspended in ice-cold PBS. Female immunodeficient athymic mice were inoculated subcutaneously near the right axillary area with MDA-MB-231 cells (5×10^6) in a 1:1 ratio (50 μL each) with Matrigel™ in a volume of 0.1 mL in phosphate buffered saline, using a 26-gauge needle. A total of 94 mice, approximately 6 weeks old were implanted with MDA-MB-231 cells.
E7449, carboplatin and E7389 were evaluated as single agents and in combination for antitumor activity against MDA-MB-231 human breast cancer xenografts in athymic mice. The first experiment consisted of a vehicle control group, an E7449 single agent group, 2 groups treated with single agent E7389 and 2 combination drug-treated groups (Table 5). Thirty-nine mice were inoculated with MDA-MB-231 cells and on Day 21 following implantation, tumor volumes were measured and mice were randomized into the 6 treatment groups based on tumor volume (average of 300 mm^3). Following randomization drug treatment was initiated. Each group was composed of 5 mice for a total of 30 mice on the first day of treatment. E7449 was formulated in 0.5% methyl cellulose and orally administered once daily for 28 days at 100 mg/kg based on body weight at 0.1 mL per 10 g. E7389 was formulated in saline and was intravenously administered once every 4 days, 4 times (Day 21, 25, 29, and 33) at a dosage of 0.05 or 0.1 mg/kg as single agent or in combination with E7449, based on body weight at 0.1 mL per 10 g. The control group was treated with oral vehicle (0.5% methyl cellulose in water) daily and intravenous vehicle (saline) once every 4 days, 4 times. E7449 or vehicle was administered first and when dosing of all animals was complete E7389 was administered to animals receiving the combination.
The second experiment consisted of a vehicle control group, 2 groups treated with single agent E7449, 2 groups treated with single agent carboplatin and 3 combination drug-treated groups (Table 6). Fifty five mice were inoculated with MDA-MB-231 cells and on Day 18 following implantation, tumor volumes were measured and mice were randomized into 8 treatment groups based on tumor volume (average of 300 mm^3). Following randomization drug treatment was initiated. Each group consisted of 5 mice for a total of 40 mice on the first day of treatment. E7449, formulated in 0.5% methyl cellulose was orally administered daily for 28 days, at 60 or 100 mg/kg based on body weight at 0.1 mL per 10 g. Carboplatin was formulated in saline and was intravenously administered once on the first day of treatment (Day 18) at a dosage of 15 or 60 mg/kg as a single agent or in combination with E7449 based on body weight at 0.1 mL per 10 g. The control group was treated with oral vehicle (0.5% methyl cellulose in water) daily and intravenous vehicle (saline) once on Day 18. E7449 or vehicle was administered first and when dosing of all animals was complete carboplatin was administered to animals receiving the combination.
Drug treatment was initiated 21 or 18 days post tumor implantation, in the E7389 and carboplatin combination studies respectively, and continued for 28 days. […]

SMILES: N.N.O=C([O-])C1(C(=O)[O-])CCC1.[Pt+2] [carboplatin]
- antitumor effect (tumor volume) ([1]; E7449+carboplatin study, carboplatin 15 and 60 mg/kg IV QDx1, single agent): Dose-dependent antitumor activity
- antitumor effect (tumor volume) ([1]; triple combination study, carboplatin 7.5 mg/kg IV QDx1, single agent): statistically significant tumor growth inhibition
- antitumor effect (tumor volume) [2]: Modest antitumor activity
